Measurements taken from patent US11643439B2, “Multi-target compound with anticoagulation and antiplatelet activity, preparation method therefor, and use thereof” (SHAANXI MICOT TECHNOLOGY LIMITED COMPANY, priority 2015, dated 2023).
Marks after values point to notes of the source that are not given here.

How the values were obtained:
[1] = system: blood coagulation function; assay: APTT in rabbits, single intravenous administration; assay type: in vivo, rabbit
Method: (§1) 1. Grouping and administration: 48 Rabbits were randomly divided into 6 groups, 8 rabbits per group. 1) Sham operation group (NS): Intravenous injection of the same volume of physiological saline; 2) positive control bivalirudin group (6 mg/kg); 3) positive control enoxaparin group (200 U/kg); 4) Low dose group of polypeptide 2 (3.0 mg/kg); 5) Medium dose group of polypeptide 2 (6.0 mg/kg); 6) High dose group of polypeptide 2 (12.0 mg/kg). Polypeptide 2 was administered by single intravenous administration. According to the body weight in kilograms of the rabbits, the sample was dissolved in 2 mL of physiological saline for single bolus injection. The sham operation group was administered with the same volume of physiological saline.
3.2 Determination of blood coagulation function: Blood samples were taken and the blood function (PT, TT, APTT) was determined at 0 min before administration, at points of 5 min and 15 min after administration, using a platelet-aggregation coagulation factor analyzer. Blood samples were centrifuged at 3510 rpm for 8 min to obtain platelet poor plasma (PPP). Reagent reconstruction and preservation were performed according to the operation requirements of the kit. Immediately after each blood sample was placed into a test cup and then added with PT. TT and APTT reagents, the test was started. After the test was completed, results were recorded.

whole blood coagulation = assay: ACT in rabbits, single intravenous administration; assay type: in vivo, rabbit
Method: as §1
3.3 Determination of ACT: At 0 min before administration and at points of administration for 5 min and 15 min, the whole blood was taken, to which kaolin was added, and placed in a water bath at 37° C. to record the whole blood coagulation time.

[2] = system: FeCl3-induced femoral artery thrombosis; assay: FeCl3-induced femoral artery thrombosis in rabbits, single intravenous administration; assay type: in vivo, rabbit
Method: as §1
2.1 Surgery preparation of rabbits: Rabbit were sent to the laboratory for accommodation for one day, and then screened at first. Blood samples were taken from arteries within ears, which were subjected to blood routine analysis and APTT examinations, and the rabbits with a normal blood hemogram and APTT between 16 and 28 seconds were selected for experiments. The rabbits to be tested were fasted with free access to water in the night before the experiment. The rabbits were anesthetized with intravenous injection of 3% sodium pentobarbital solution at 1 ml/kg, fixed in the supine position, and then, the common carotid artery at one side, external jugular vein, femoral artery at one side, femoral vein, and forelimb vein at one side were isolated. The forelimb vein was subjected to intubation for administration; the left femoral vein was subjected to intubation for blood collection to determine the platelet aggregation rate: the femoral artery was used for the establishment of an arterial thrombosis model; the common carotid artery and external jugular vein were used for the establishment of an arterial and venous bypass thrombosis model.
2.3 Arterial thrombosis (AT) model: A small piece of filter paper (1 cm×1.5 cm) absorbed with 50% FeCl3 solution was applied onto the right femoral artery while administration, below which a small piece of a plastic film (2.5 cm×2.0 cm) was placed to protect surrounding tissues. After 10 minutes, the filter paper was removed, and then, the blood vessels and local tissues were rinsed with warm physiological saline, and the covered blood vessels were cut off. The thrombus which attached to the blood vessel walls was peeled off to be weighed on a tin foil for its wet weight, and then kept overnight at room temperature and weighed for its dry weight.
The femoral arteries in the […] and both sides in the rabbits were isolated and stabilized for 10 min before the administration was started. An AT model was established by covering the femoral artery with 50% FeCl3 filter paper while administration, and the filter paper was removed after covering for 15 minutes. An AVST model was established and it was taken out after […]. Observation was continued for 120 min after administration until the experiment was completed.
3.4 Thrombus weight: After the experiment was completed, the segment of the blood vessels in which there had been thrombus formation was cut off, weighed for the wet weight, and then kept overnight at room temperature and weighed for the dry weight. The thrombosis inhibitory rate was calculated with a calculation equation as follows: […]

[3] = system: blood coagulation function; assay: APTT in rats, intravenous maintenance administration; assay type: in vivo, rat
Method: 160 Rats were randomly divided into groups, 5 to 10 rats per group.
According to the body weight in kilograms of the rats, the first dose of a drug was dissolved in 2 mL of physiological saline for single bolus injection. The maintaining dose of drug was dissolved in 9 ml of physiological saline, and placed in a double-channel micro-injection pump, which was dripped off within 90 minutes at a dripping speed of 0.1 ml/min. The sham operation group was administered with the same volume of physiological saline.
The rats were fasted with free access to water overnight before the experiment.
The blood samples were taken before administration, administration for 60 minutes, and before termination of administration, respectively, to determine their activated partial thromboplastin time (APTT) and prothrombin time (PT). The blood samples were centrifuged at 3510 rpm for 8 minutes to obtain platelet poor plasma (PPP). Reagent reconstruction and preservation were performed according to the operation requirements of the kit. Immediately after each blood sample was placed into a test cup and then PT and APTT reagents were added, the test was started. After the test was completed, results were recorded.
5.1 Determination of blood coagulation function: The blood samples were taken 0 min before administration, administration for 60 minutes, and termination of administration, respectively, and then determined using a platelet-aggregation coagulation factor analyzer for the blood coagulation functions (PT. APTT) and ACT.

[4] = single iv 6.0 mg/kg, Administration for 5 min
[5] = single iv 6.0 mg/kg, Administration for 15 min
[6] = single iv 6.0 mg/kg, Before administration
[7] = iv 0.08 + 0.325 (mg/kg + mg/kg/h)
[8] = iv 0.17 + 0.65 (mg/kg + mg/kg/h)
[9] = iv 0.35 + 3.3 (mg/kg + mg/kg/h)
[10] = single iv 200 (U/kg), Administration for 5 min
[11] = single iv 200 (U/kg), Administration for 15 min
[12] = single iv 200 (U/kg), Before administration

Bivalirudin: Bivalirudin for Injection, Xi'an Xintong Pharmaceutical Research Co., Ltd.; positive control thrombin inhibitor
APTT fold of prolongation ([1]; single iv 6.0 mg/kg, Administration 5 min): 2.4 ± 0.3 | APTT fold of prolongation ([1]; single iv 6.0 mg/kg, Administration 15 min): 1.4 ± 0.3 | APTT [1, 4]: 50.4 ± 3.6 s | APTT [1, 5]: 30.9 ± 2.7 s | APTT [1, 6]: 21.6 ± 1.0 s | ACT (whole blood coagulation; [4]): 443.8 ± 35.3 s | ACT (whole blood coagulation; [5]): 375.0 ± 24.1*^ s | ACT fold of prolongation (whole blood coagulation; single iv 6.0 mg/kg, After administration 5 min): 1.5 ± 0.3 | ACT fold of prolongation (whole blood coagulation; single iv 6.0 mg/kg, After administration 15 min): 1.3 ± 0.4 | ACT (whole blood coagulation; [6]): 305.6 ± 24.0 s | Thrombus dry weight ([2]; single iv 6.0 mg/kg): 1.5 ± 0.9 mg | Thrombus inhibitory rate ([2]; single iv 6.0 mg/kg): 48.20% | APTT Before administration [3, 7]: 25.05 ± 1.78 | APTT Fold of change [3, 7]: 1.36 ± 0.50 | APTT administration for 60 minutes [3, 7]: 34.18 ± 12.92 | APTT Before administration [3, 8]: 25.55 ± 5.02 | APTT Fold of change [3, 8]: 1.66 ± 0.60 | APTT administration for 60 minutes [3, 8]: 41.46 ± 14.96 | APTT Before administration [3, 9]: 23.16 ± 2.37 | APTT Fold of change [3, 9]: 4.10 ± 1.86 | APTT administration for 60 minutes [3, 9]: 95.86 ± 45.71 | APTT Before administration ([3]; iv 0.5 + 2 (mg/kg + mg/kg/h)): 24.77 ± 7.84 | APTT Fold of change ([3]; iv 0.5 + 2 (mg/kg + mg/kg/h)): 3.89 ± 1.37 | APTT administration for 60 minutes ([3]; iv 0.5 + 2 (mg/kg + mg/kg/h)): 90.23 ± 21.92

Enoxaparin
APTT fold of prolongation ([1]; single iv 200 (U/kg), Administration 5 min): 2.2 ± 0.5 | APTT fold of prolongation ([1]; single iv 200 (U/kg), Administration 15 min): 1.8 ± 0.3 | APTT [1, 10]: 48.7 ± 3.9 s | APTT [1, 11]: 40.9 ± 2.9 s | APTT [1, 12]: 22.5 ± 1.1 s | ACT (whole blood coagulation; [10]): 915.0 ± 37.7 s | ACT (whole blood coagulation; [11]): 610.7 ± 25.7 s | ACT fold of prolongation (whole blood coagulation; single iv 200 (U/kg), After administration 5 min): 3.4 ± 1.1 | ACT fold of prolongation (whole blood coagulation; single iv 200 (U/kg), After administration 15 min): 2.2 ± 0.7 | ACT (whole blood coagulation; [12]): 285.0 ± 25.6 s | Thrombus dry weight ([2]; single iv 200 U (U/kg)): 1.5 ± 0.4 mg | Thrombus inhibitory rate ([2]; single iv 200 U (U/kg)): 48.26% | APTT Before administration ([3]; iv 30 + 45 u (U/kg+U/kg/h)): 28.99 ± 7.00 | APTT Fold of change ([3]; iv 30 + 45 u (U/kg+U/kg/h)): 1.78 ± 0.61 | APTT administration for 60 minutes ([3]; iv 30 + 45 u (U/kg+U/kg/h)): 52.28 ± 22.51 | APTT Before administration ([3]; iv 30 + 120 u (U/kg+U/kg/h)): 23.66 ± 5.88 | APTT Fold of change ([3]; iv 30 + 120 u (U/kg+U/kg/h)): 4.65 ± 1.72 | APTT administration for 60 minutes ([3]; iv 30 + 120 u (U/kg+U/kg/h)): 117.55 ± 78.85 | APTT Before administration ([3]; iv 60 + 60 u (U/kg+U/kg/h)): 23.45 ± 4.70 | APTT Fold of change ([3]; iv 60 + 60 u (U/kg+U/kg/h)): 2.66 ± 0.36 | APTT administration for 60 minutes ([3]; iv 60 + 60 u (U/kg+U/kg/h)): 61.81 ± 13.19 | APTT Before administration ([3]; iv 60 + 240 u (U/kg+U/kg/h)): 26.79 ± 4.74 | APTT Fold of change ([3]; iv 60 + 240 u (U/kg+U/kg/h)): 10.69 ± 7.14 | APTT administration for 60 minutes ([3]; iv 60 + 240 u (U/kg+U/kg/h)): 270.43 ± 166.43 | APTT Before administration ([3]; iv 90 + 120 u (U/kg+U/kg/h)): 19.04 ± 5.26 | APTT Fold of change ([3]; iv 90 + 120 u (U/kg+U/kg/h)): 16.34 ± 12.97 | APTT administration for 60 minutes ([3]; iv 90 + 120 u (U/kg+U/kg/h)): 270.85 ± 148.90
